Assay results taken from patent US20140371262A1, “PREVENTIVE AND/OR THERAPEUTIC AGENT FOR THROMBOEMBOLISM IN THROMBOEMBOLISM PATIENT WITH SEVERE RENAL IMPAIRMENT” (Daiichi Sankyo Company, Limited, priority 2011, published 2014).

How the values were obtained:
NVAF patients = experiment: Late phase-II trial targeting NVAF patient in Japan (thromboembolic and bleeding events, 12 weeks); assay type: in vivo, human; conditions: for Bleeding events, subjects with event/subjects / Incidence of bleeding events (major, clinically relevant non-major and minor bleeding in total): all subjects
[1] = system: NVAF patient with severe renal impairment or with normal renal functions or mild renal impairment; experiment: Phase-III trial targeting NVAF patient with severe renal impairment; conditions: for Any bleeding events (adjudicated), incidence / Any bleeding events (adjudicated), number of subjects with events / Clinically relevant non-major bleeding events, incidence / Clinically relevant non-major bleeding events, number of subjects with events / Major bleeding events, incidence / Major bleeding events, number of subjects with events: 12 weeks
[2] = Clinical pharmacological trial: pharmacokinetics after single-dose edoxaban 15 mg in individuals with renal functional impairment; conditions: for AUC(0-t) / concentration at 24 h / CL renal / Cmax / half-life / Tmax: human, in vivo, 15 mg; for AUC(0-t): AUC0-24h Geometric least squares mean; for AUC(0-t) / concentration at 24 h / CL renal / Cmax / half-life / Tmax / AUC0-24h Geometric least squares mean ratio to healthy adult / Cmax Geometric least squares mean ratio to healthy adult: single-dose 15 mg; for concentration at 24 h: C24h Geometric mean (plasma edoxaban concentration 24 hours after administration); for CL renal: CLR Geometric mean (renal clearance); for Cmax: Cmax Geometric least squares mean; for half-life: t1/2 Geometric least squares mean; for Tmax: tmax Least squares mean
Description: Edoxaban was subjected to a clinical trial targeting individuals with renal functional impairment, in which edoxaban was studied for its pharmacokinetics in the individuals with renal functional impairment (Non-patent literature 4). In this clinical trial, 15 mg of edoxaban was administered at a single dose to each patient in five groups differing in the severity of renal functional impairment.

[3] = each edoxaban group (30, 45, 60 mg) vs warfarin group
[4] = Normal/MiRI (CLCR 50 mL/min or higher), high-dose 60 mg once a day
[5] = Normal/MiRI (CLCR 50 mL/min or higher), low-dose 30 mg once a day
[6] = SRI (CLCR 15 to <30 mL/min), edoxaban 15 mg once a day
[7] = any of the treatment groups (SRI 15 mg, Normal/MiRI 30 mg, 60 mg)
[8] = healthy adult (CLCR > 80 mL/min)
[9] = mild renal impairment (50 ≦ CLCR ≦ 80 mL/min)
[10] = moderate renal impairment (30 ≦ CLCR < 50 mL/min)
[11] = severe renal impairment (CLCR < 30 mL/min, nondialyzed)
[12] = individuals with severe renal impairment

## CN1CCc2nc(C(=O)N[C@@H]3C[C@@H](C(=O)N(C)C)CC[C@@H]3NC(=O)C(=O)Nc3ccc(Cl)cn3)sc2C1 [edoxaban, N^1-(5-chloropyridin-2-yl)-N^2-((1S,2R,4S)-4-[(dimethylamino)carbonyl]-2-{[(5-methyl-4,5,6,7-tetrahydrothiazolo[5,4-c]pyridin-2-yl)carbonyl]amino}cyclohexyl)ethanediamide]
NVAF patients; 60 mg×1/day, 12 weeks, CLCR < 30 mL/min
  Major bleeding or clinically relevant non-major bleeding, subjects with event/subjects: (0/1)
NVAF patients; [3]
  Incidence of bleeding events compared with the warfarin group: No statistically significant difference
  Incidence of major bleeding, or of major bleeding or clinically relevant non-major bleeding, compared with the warfarin group: not statistically significantly different
NVAF patients; edoxaban 30 mg group, 12 weeks
  Bleeding events, subjects with event/subjects: 24/130
  Incidence of bleeding events (major, clinically relevant non-major and minor bleeding in total): 18.5%
NVAF patients; edoxaban 45 mg group, 12 weeks
  Major bleeding, incidence: 2.2%
  Major bleeding, number of subjects: 3 subjects
  Bleeding events, subjects with event/subjects: 30/134
  Incidence of bleeding events (major, clinically relevant non-major and minor bleeding in total): 22.4%
NVAF patients; edoxaban 45 mg group, 12 weeks, the only thromboembolic event of the trial
  Thromboembolic events: one cerebral infarction
NVAF patients; edoxaban 60 mg group, 12 weeks
  Major bleeding, incidence: 1.5%
  Major bleeding, number of subjects: 2 subjects
  Bleeding events, subjects with event/subjects: 36/130
  Incidence of bleeding events (major, clinically relevant non-major and minor bleeding in total): 27.7%
[1]; 15 mg of edoxaban for 12 weeks in patients with SRI
  Bleeding compared to the low dose or high dose in patients with Normal/miRI: did not result in a marked increase in bleeding
[1]; [4]
  Any bleeding events (adjudicated), incidence: 23.8%
  Any bleeding events (adjudicated), number of subjects with events: 5
  Clinically relevant non-major bleeding events, incidence: 4.8%
  Clinically relevant non-major bleeding events, number of subjects with events: 1
  Major bleeding events, incidence: 0.0%
  Major bleeding events, number of subjects with events: 0
[1]; [5]
  Any bleeding events (adjudicated), incidence: 22.7%
  Any bleeding events (adjudicated), number of subjects with events: 5
  Clinically relevant non-major bleeding events, incidence: 0%
  Clinically relevant non-major bleeding events, number of subjects with events: 0
  Major bleeding events, incidence: 0.0%
  Major bleeding events, number of subjects with events: 0
[1]; SRI 15-mg edoxaban group vs Normal/MiRI low-dose (30-mg) or high-dose (60-mg) group
  Difference in the incidence of any adjudicated bleeding events: No notable difference
[1]; [6]
  Any bleeding events (adjudicated), incidence: 20.0%
  Any bleeding events (adjudicated), number of subjects with events: 10
  Clinically relevant non-major bleeding events, incidence: 0%
  Clinically relevant non-major bleeding events, number of subjects with events: 0
  Major bleeding events, incidence: 0.0%
  Major bleeding events, number of subjects with events: 0
[1]; all serious adverse events were reported in the SRI 15-mg group
  Relation of the serious adverse events to the study drug: considered unrelated to the study drug
[1]; any of the treatment groups
  Deaths: No deaths were reported
[1]; [7]
  Adjudicated major bleeding events: No adjudicated major bleeding events occurred
  Thromboembolic events (cerebral infarction and systemic embolism): No cerebral infarction or systemic embolism occurred
[2]; [8]
  AUC(0-t): 0.44 µg·h/mL
  concentration at 24 h: 0.00234 µg/mL
  CL renal: 197 mL/min
  Cmax: 0.0888 µg/mL
  half-life: 8.6 h
  Tmax: 1.5 h
[2]; [9]
  AUC(0-t): 0.569 µg·h/mL
  concentration at 24 h: 0.00344 µg/mL
  CL renal: 121 mL/min
  Cmax: 0.104 µg/mL
  half-life: 8.15 h
  Tmax: 1.88 h
  AUC0-24h Geometric least squares mean ratio to healthy adult: 1.29
  Cmax Geometric least squares mean ratio to healthy adult: 1.17
[2]; [10]
  AUC(0-t): 0.726 µg·h/mL
  concentration at 24 h: 0.0059 µg/mL
  CL renal: 67.4 mL/min
  Cmax: 0.113 µg/mL
  half-life: 9.44 h
  Tmax: 1.38 h
  AUC0-24h Geometric least squares mean ratio to healthy adult: 1.65
  Cmax Geometric least squares mean ratio to healthy adult: 1.27
[2]; peritoneal dialysis patient
  AUC(0-t): 0.77 µg·h/mL
  concentration at 24 h: 0.00824 µg/mL
  Cmax: 0.0838 µg/mL
  half-life: 12.2 h
  Tmax: 2.37 h
  AUC0-24h Geometric least squares mean ratio to healthy adult: 1.75
  Cmax Geometric least squares mean ratio to healthy adult: 0.944
[2]; [11]
  AUC(0-t): 0.661 µg·h/mL
  concentration at 24 h: 0.00688 µg/mL
  CL renal: 32.5 mL/min
  Cmax: 0.0836 µg/mL
  half-life: 16.9 h
  Tmax: 1.7 h
  AUC0-24h Geometric least squares mean ratio to healthy adult: 1.50
  Cmax Geometric least squares mean ratio to healthy adult: 0.941
[2]; individuals with moderate renal impairment
  Increase of C24 h compared with healthy adults: 2.52 times
[2]; [12]
  Degree of the rise in C24 h relative to healthy adults: approximately 3 times
  Degree of the rise in C24 h relative to individuals with mild renal impairment: approximately 2 times
